These results are taken from patent US20260295053A1, “COMPOUNDS FOR DEGRADATION AND INHIBITION OF KRAS (G12D) PROTEIN” (Shenzhen Ionova Life Science Co., Ltd., priority 2023, published 2026).

In assay [1] the test system is AsPC-1 cells. Description: AsPC-1 cell proliferation assay (CellTiter Glo). Particulars: 6 days. In kind it is cell-based. Summed up: (§1)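 Proliferation IC50 comes from CellTiter Glo luminescence after 6 days' exposure of AsPC-1 (3,500 cells/well) to 1:3 dilutions from […] to 1.5 nM. KRAS G12D DC50 derives from in-cell immunofluorescence normalised to β-actin after 24 h treatment of near-confluent AsPC-1 cells over the same range.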
(In ATP-based viability assays light output follows the ATP content of the culture.)

The target of assay [2] is T1, KRAS (G12D) (Homo sapiens, UniProt P01116, G12D).
T1 construct: in-cell western with KRAS G12D antibody after 24 h
T1 sequence (P01116 1-188 isoform P01116-2 G12D): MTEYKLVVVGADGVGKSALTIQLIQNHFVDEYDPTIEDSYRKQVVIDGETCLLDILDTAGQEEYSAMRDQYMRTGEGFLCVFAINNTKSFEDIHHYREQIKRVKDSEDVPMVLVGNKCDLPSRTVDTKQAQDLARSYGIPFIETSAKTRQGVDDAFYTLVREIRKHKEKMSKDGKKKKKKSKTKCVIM
The assay can be described thus: KRAS (G12D) cellular degradation assay in AsPC-1 cells. In kind it is cell-based. Particulars: 24 hours, antibody fluorescence (Odyssey CLX), DC50 half-maximal degradation concentration. The gist of the method:
as §1

For `CCn1nccc1-c1ccc([C@@H](NC(=O)[C@@H]2C[C@@H](O)CN2C(=O)[C@H](C(C)C)n2cc(-c3ccc(COc4c(-c5c(C)c(F)cc6[nH]ncc56)c(C5CC5)cc5c(N6C[C@@H]7C[C@H]6CN7)nc(O[C@H]6CC[C@H](OC)CC6)nc45)cc3)nn2)[C@H](C)O)cc1` [Example 121, (2S,4R)-1-((2S)-2-(4-(4-(((4-((1S,4S)-2,5-diazabicyclo[2.2.1]heptan-2-yl)-6-cyclopropyl-7-(6-fluoro-5-methyl-1H-indazol-4-yl)-2-(((1r,4S)-4-methoxycyclohexyl)oxy)quinazolin-8-yl)oxy)methyl)phenyl)-1H-1,2,3-triazol-1-yl)-3-methylbutanoyl)-N-((1R,2S)-1-(4-(1-ethyl-1H-pyrazol-5-yl)phenyl)-2-hydroxypropyl)-4-hydroxypyrrolidine-2-carboxamide], the IC50 (usually the midpoint of a concentration-inhibition curve) in assay [1] (Homo sapiens, ASPC1, 144 h) was less than 10 nM. Also, the DC50 (usually the concentration giving 50% degradation) in assay [2] was less than 10 nM.

In assay [1], `CCn1nccc1-c1ccc([C@@H](NC(=O)[C@@H]2C[C@@H](O)CN2C(=O)[C@H](C(C)C)n2cc(-c3ccc(COc4c(-c5c(C)c(F)cc6[nH]ncc56)c(C5CC5)cc5c(N6C[C@@H]7C[C@H]6CN7)nc(OCC(OC)C(F)F)nc45)cc3)nn2)[C@H](C)O)cc1` (stereo partly drawn) [Example 122, (2S,4R)-1-((2S)-2-(4-(4-(((4-((1S,4S)-2,5-diazabicyclo[2.2.1]heptan-2-yl)-6-cyclopropyl-2-(3,3-difluoro-2-methoxypropoxy)-7-(6-fluoro-5-methyl-1H-indazol-4-yl)quinazolin-8-yl)oxy)methyl)phenyl)-1H-1,2,3-triazol-1-yl)-3-methylbutanoyl)-N-((1R,2S)-1-(4-(1-ethyl-1H-pyrazol-5-yl)phenyl)-2-hydroxypropyl)-4-hydroxypyrrolidine-2-carboxamide] showed an IC50 of less than 10 nM. Moreover, in assay [2], the DC50 was less than 10 nM.

As for `CCn1nccc1-c1ccc([C@@H](NC(=O)[C@@H]2C[C@@H](O)CN2C(=O)[C@H](C(C)C)n2cc(-c3ccc(COc4c(-c5c(C)c(F)cc6[nH]ncc56)c(C5CC5)cc5c(N6C[C@@H]7C[C@H]6CN7)nc(OC6CCC(OC)CC6)nc45)cc3)nn2)[C@@H](C)O)cc1` (stereo partly drawn) [Example 127, (2S,4R)-1-((2S)-2-(4-(4-(((4-((1S,4S)-2,5-diazabicyclo[2.2.1]heptan-2-yl)-6-cyclopropyl-7-(6-fluoro-5-methyl-1H-indazol-4-yl)-2-((4-methoxycyclohexyl)oxy)quinazolin-8-yl)oxy)methyl)phenyl)-1H-1,2,3-triazol-1-yl)-3-methylbutanoyl)-N-((1R,2R)-1-(4-(1-ethyl-1H-pyrazol-5-yl)phenyl)-2-hydroxypropyl)-4-hydroxypyrrolidine-2-carboxamide], in assay [1] (Homo sapiens, ASPC1, 144 h), the IC50 was less than 10 nM. For the same molecule, the DC50 in assay [2] is less than 10 nM.

In assay [1] (Homo sapiens, ASPC1, 144 h), `CCn1nccc1-c1ccc([C@@H](NC(=O)[C@@H]2C[C@@H](O)CN2C(=O)[C@H](C(C)C)n2cc(-c3ccc(COc4c(-c5c(C)c(F)cc6[nH]ncc56)c(C5CCC5)cc5c(N6C[C@@H]7C[C@H]6CN7)nc(OC[C@H](C)OC)nc45)cc3)nn2)[C@@H](C)O)cc1` [Example 128, (2S,4R)-1-((2S)-2-(4-(4-(((4-((1S,4S)-2,5-diazabicyclo[2.2.1]heptan-2-yl)-6-cyclobutyl-7-(6-fluoro-5-methyl-1H-indazol-4-yl)-2-((S)-2-methoxypropoxy)quinazolin-8-yl)oxy)methyl)phenyl)-1H-1,2,3-triazol-1-yl)-3-methylbutanoyl)-N-((1R,2R)-1-(4-(1-ethyl-1H-pyrazol-5-yl)phenyl)-2-hydroxypropyl)-4-hydroxypyrrolidine-2-carboxamide] yielded an IC50 of less than 10 nM. Moreover, the DC50 in assay [2] was in the range of 10 to 100 nM.

Molecule `Cc1ncsc1-c1ccc([C@H](CO)NC(=O)[C@@H]2C[C@@H](O)CN2C(=O)[C@H](C(C)C)n2cc(-c3ccc(COc4c(-c5c(C)c(F)cc6[nH]ncc56)c(C5CC5)cc5c(N6C[C@@H]7C[C@H]6CN7)nc(OC6CC7(COC7)C6)nc45)cc3)nn2)cc1` [Example 129, (2S,4R)-1-((2S)-2-(4-(4-(((2-((2-oxaspiro[3.3]heptan-6-yl)oxy)-4-((1S,4S)-2,5-diazabicyclo[2.2.1]heptan-2-yl)-6-cyclopropyl-7-(6-fluoro-5-methyl-1H-indazol-4-yl)quinazolin-8-yl)oxy)methyl)phenyl)-1H-1,2,3-triazol-1-yl)-3-methylbutanoyl)-4-hydroxy-N—((R)-2-hydroxy-1-(4-(4-methylthiazol-5-yl)phenyl)ethyl)pyrrolidine-2-carboxamide] gave an IC50 in assay [1] (Homo sapiens, ASPC1, 144 h) of less than 10 nM. This molecule also came in with a DC50 in assay [2] of less than 10 nM.

Regarding `CCn1nccc1-c1ccc([C@@H](NC(=O)[C@@H]2C[C@@H](O)CN2C(=O)[C@H](C(C)C)n2cc(-c3ccc(COc4c(-c5c(C)c(F)cc6[nH]ncc56)c(C5CC5)cc5c(N6C[C@@H]7C[C@H]6CN7)nc(OC6CCC7(CC6)COC7)nc45)cc3)nn2)[C@@H](C)O)cc1` [Example 130, (2S,4R)-1-((2S)-2-(4-(4-(((2-((2-oxaspiro[3.5]nonan-7-yl)oxy)-4-((1S,4S)-2,5-diazabicyclo[2.2.1]heptan-2-yl)-6-cyclopropyl-7-(6-fluoro-5-methyl-1H-indazol-4-yl)quinazolin-8-yl)oxy)methyl)phenyl)-1H-1,2,3-triazol-1-yl)-3-methylbutanoyl)-N-((1R,2R)-1-(4-(1-ethyl-1H-pyrazol-5-yl)phenyl)-2-hydroxypropyl)-4-hydroxypyrrolidine-2-carboxamide], the IC50 in assay [1] (Homo sapiens, ASPC1, 144 h) was less than 10 nM. Also, the DC50 in assay [2] is less than 10 nM.

The molecule `CCn1nccc1-c1ccc([C@@H](NC(=O)[C@@H]2C[C@@H](O)CN2C(=O)[C@H](C(C)C)n2cc(-c3ccc(COc4c(-c5c(C)c(F)cc6[nH]ncc56)c(C5CC5)cc5c(N6C[C@@H]7C[C@H]6CN7)nc(O[C@H]6C[C@H](OC)C6)nc45)cc3)nn2)[C@@H](C)O)cc1` [Example 131, (2S,4R)-1-((2S)-2-(4-(4-(((4-((1S,4S)-2,5-diazabicyclo[2.2.1]heptan-2-yl)-6-cyclopropyl-7-(6-fluoro-5-methyl-1H-indazol-4-yl)-2-((1r,3S)-3-methoxycyclobutoxy)quinazolin-8-yl)oxy)methyl)phenyl)-1H-1,2,3-triazol-1-yl)-3-methylbutanoyl)-N-((1R,2R)-1-(4-(1-ethyl-1H-pyrazol-5-yl)phenyl)-2-hydroxypropyl)-4-hydroxypyrrolidine-2-carboxamide] came in with an IC50 in assay [1] (Homo sapiens, ASPC1, 144 h) of less than 10 nM. This molecule yielded a DC50 in assay [2] of less than 10 nM.

In the case of `Cc1ncsc1-c1ccc([C@@H](NC(=O)[C@@H]2C[C@@H](O)CN2C(=O)[C@H](C(C)C)n2cc(-c3ccc(COc4c(-c5c(C)c(F)cc6[nH]ncc56)c(C5CC5)cc5c(N6C[C@@H]7C[C@H]6CN7)nc(OC6CC7COCC7C6)nc45)cc3)nn2)[C@H](C)O)cc1` (stereo partly drawn) [Example 132, (2S,4R)-1-((2S)-2-(4-(4-(((4-((1S,4S)-2,5-diazabicyclo[2.2.1]heptan-2-yl)-6-cyclopropyl-7-(6-fluoro-5-methyl-1H-indazol-4-yl)-2-((hexahydro-1H-cyclopenta[c]furan-5-yl)oxy)quinazolin-8-yl)oxy)methyl)phenyl)-1H-1,2,3-triazol-1-yl)-3-methylbutanoyl)-4-hydroxy-N-((1R,2S)-2-hydroxy-1-(4-(4-methylthiazol-5-yl)phenyl)propyl)pyrrolidine-2-carboxamide], the IC50 in assay [1] (Homo sapiens, ASPC1, 144 h) is less than 10 nM. Also, in assay [2], the DC50 was less than 10 nM.

Take `CO[C@@H](C)COc1nc(N2C[C@@H]3C[C@H]2CN3)c2cc(C3CC3)c(-c3c(C)c(F)cc4[nH]ncc34)c(OCc3ccc(-c4cn([C@H](C(=O)N5C[C@H](O)C[C@H]5C(=O)N[C@H](C#Cc5cccc6[nH]ncc56)CO)C(C)C)nn4)cc3)c2n1` [Example 133, (2S,4R)-1-((2S)-2-(4-(4-(((4-((1S,4S)-2,5-diazabicyclo[2.2.1]heptan-2-yl)-6-cyclopropyl-7-(6-fluoro-5-methyl-1H-indazol-4-yl)-2-((S)-2-methoxypropoxy)quinazolin-8-yl)oxy)methyl)phenyl)-1H-1,2,3-triazol-1-yl)-3-methylbutanoyl)-4-hydroxy-N—((R)-1-hydroxy-4-(1H-indazol-4-yl)but-3-yn-2-yl)pyrrolidine-2-carboxamide]: the IC50 in assay [1] (Homo sapiens, ASPC1, 144 h) is less than 10 nM. For the same molecule, the DC50 in assay [2] was less than 10 nM.

`CO[C@H]1C[C@@H](Oc2nc(N3C[C@@H]4C[C@H]3CN4)c3cc(C4CC4)c(-c4c(C)c(F)cc5[nH]ncc45)c(OCc4ccc(-c5cn([C@H](C(=O)N6C[C@H](O)C[C@H]6C(=O)N[C@H](c6ccc(-c7scnc7C)cc6)[C@H](C)O)C(C)C)nn5)cc4)c3n2)C1` [Example 135, (2S,4R)-1-((2S)-2-(4-(4-(((4-((1S,4S)-2,5-diazabicyclo[2.2.1]heptan-2-yl)-6-cyclopropyl-7-(6-fluoro-5-methyl-1H-indazol-4-yl)-2-((1s,3R)-3-methoxycyclobutoxy)quinazolin-8-yl)oxy)methyl)phenyl)-1H-1,2,3-triazol-1-yl)-3-methylbutanoyl)-4-hydroxy-N-((1R,2S)-2-hydroxy-1-(4-(4-methylthiazol-5-yl)phenyl)propyl)purrolidine-2-carboxcamide] showed an IC50 in assay [1] (Homo sapiens, ASPC1, 144 h) of less than 10 nM. Moreover, the DC50 in assay [2] is less than 10 nM.

Turning to `CCn1nccc1-c1ccc([C@@H](NC(=O)[C@@H]2C[C@@H](O)CN2C(=O)[C@H](C(C)C)n2cc(-c3ccc(COc4c(-c5c(C)c(F)cc6[nH]ncc56)c(C5CCC5)cc5c(N6C[C@@H]7C[C@H]6CN7)nc(O[C@H]6C[C@H](OC)C6)nc45)cc3)nn2)[C@H](C)O)cc1` [Example 136, (2S,4R)-1-((2S)-2-(4-(4-(((4-((1S,4S)-2,5-diazabicyclo[2.2.1]heptan-2-yl)-6-cyclobutyl-7-(6-fluoro-5-methyl-1H-indazol-4-yl)-2-((1r,3S)-3-methoxycyclobutoxy)quinazolin-8-yl)oxy)methyl)phenyl)-1H-1,2,3-triazol-1-yl)-3-methylbutanoyl)-N-((1R,2S)-1-(4-(1-ethyl-1H-pyrazol-5-yl)phenyl)-2-hydroxypropyl)-4-hydroxypyrrolidine-2-carboxamide], the concentration for half-maximal inhibition (IC50) in assay [1] (Homo sapiens, ASPC1, 144 h) was less than 10 nM. In assay [2], this molecule registered a DC50 of less than 10 nM.
